# In PubChem BioAssay (NCI):
#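 Dose response: 5 concentrations. Exposure: 48 h. Format: 96-well plates. Endpoint: linear interpolation; highest concentration if not reached. GI50 is the concentration that inhibits growth by half. TGI denotes the concentration required for complete inhibition of growth.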
# Experiments:
# Experiment in all cases: growth of human tumour cells (NCI), 48 h
# [1] = tested on: ACHN renal
# [2] = tested on: EKVX NSCLC
# [3] = tested on: HCC-2998 colon
# [4] = tested on: HCT-116 colon
# [5] = tested on: LOX IMVI melanoma
# [6] = tested on: NCI-H226 lung
# [7] = tested on: OVCAR-4 ovarian
# [8] = tested on: SF-539 CNS
# [9] = tested on: SK-MEL-28 melanoma
# [10] = tested on: SK-MEL-5 melanoma
SMILES,GI50 [1],TGI [1],GI50 [2],TGI [2],GI50 [3],TGI [3],GI50 [4],TGI [4],GI50 [5],TGI [5],GI50 [6],TGI [6],GI50 [7],TGI [7],GI50 [8],TGI [8],GI50 [9],TGI [9],GI50 [10],TGI [10]
O=C(CN1CCN(c2ccccn2)CC1)Nc1ccc(Cl)cc1C(=O)c1ccccc1Cl,56.1 µM,> 100 µM,45.4 µM,> 100 µM,> 100 µM,> 100 µM,10 µM,> 100 µM,41.6 µM,> 100 µM,> 100 µM,> 100 µM,13.9 µM,> 100 µM,45.9 µM,> 100 µM,> 100 µM,> 100 µM,10.2 µM,38.3 µM
COc1ccc(OC)c(/C=C/C(=O)c2ccc3cc(OC)ccc3c2)c1,–,> 32.9 µM,> 12.3 µM,> 50 µM,0.795 µM,2.44 µM,> 15 µM,> 50 µM,48 µM,> 50 µM,> 50 µM,> 50 µM,10.8 µM,> 50 µM,–,> 12.6 µM,3.74 µM,> 50 µM,6.4 µM,> 24.3 µM
COC(=O)[C@]1(C)CC[C@]2(C)CC[C@]3(C)C(=CC(=O)[C@@H]4[C@@]5(C)CCC(=O)NC(C)(C)[C@@H]5CC[C@]43C)[C@@H]2C1,24 µM,89.4 µM,25.5 µM,> 100 µM,18.4 µM,38.7 µM,10.8 µM,25.6 µM,16.6 µM,32.3 µM,14.9 µM,35.4 µM,27.6 µM,> 100 µM,14.6 µM,28.6 µM,18.5 µM,36.5 µM,14.7 µM,28.9 µM
COc1c(OC2OC(CO)C(O)C(O)C2O)cc2c(c1OC)-c1ccc(OC)c(=O)cc1[C@@H](NC(C)=O)CC2 (stereo partly drawn),–,> 100 µM,–,> 100 µM,–,> 100 µM,–,> 100 µM,–,> 100 µM,–,> 100 µM,–,> 100 µM,–,> 100 µM,–,> 100 µM,–,> 94.5 µM
NS(=O)(=O)c1ccc(N=Nc2c(=O)[nH]c3ccc4[nH]cccc4c23)cc1,0.694 µM,> 25 µM,2.1 µM,> 25 µM,0.398 µM,2 µM,0.151 µM,> 25 µM,0.304 µM,> 25 µM,0.317 µM,3.06 µM,0.409 µM,> 6.68 µM,0.295 µM,1.46 µM,0.518 µM,1.64 µM,0.256 µM,4.69 µM
Cc1ccccc1NC(=O)CC(=O)n1nc(-c2ccccc2)c(N=Nc2ccc([N+](=O)[O-])cc2)c1-c1ccccc1,–,44.5 µM,–,88.1 µM,–,51.3 µM,–,31.5 µM,–,46.6 µM,–,58.4 µM,–,> 100 µM,–,52 µM,–,96.9 µM,–,25.9 µM
CC(=O)OC1(C#N)CC2OC1C1NC21 (stereo not drawn),–,> 100 µM,–,> 100 µM,–,> 100 µM,–,> 100 µM,–,> 100 µM,–,> 100 µM,–,> 100 µM,–,> 100 µM,–,> 100 µM,–,> 100 µM
CCCCCCCCC(=O)NCCN(CCN)C(=O)CCCCCCCC,–,19.2 µM,–,36.2 µM,–,24.3 µM,–,8.02 µM,–,9.06 µM,–,37.1 µM,–,16.2 µM,–,15.3 µM,–,30.5 µM,–,26.4 µM
CC(=O)N1CCN(C=S)CC1,–,> 100 µM,–,> 100 µM,–,> 100 µM,–,> 100 µM,–,> 100 µM,–,> 100 µM,–,> 100 µM,–,> 100 µM,–,> 100 µM,–,> 100 µM
O=C(OCc1ccccc1)c1ccccc1-c1c2ccc(=O)cc-2oc2cc(OCc3ccccc3)ccc12,–,> 100 µM,–,> 100 µM,–,56 µM,–,57.7 µM,–,21.2 µM,–,32.2 µM,–,> 100 µM,–,28.9 µM,–,61 µM,–,17.8 µM
